Reference: patent publication US8410056B2, “Pro-oxidant anti-cancer compounds” (priority 2006, dated 2013)

Assays:
[1] = system: NADH dehydrogenase (complex I); assay: Complex I (NADH dehydrogenase) activity; format: biochemical; conditions: data not shown
Experimental: Measurement of mitochondrial complex II and complex I activity. A time course for the reduction of the complex II substrate 2,6-dichlorophenol indophenol (DCIP) by the mitochondrial preparations was followed by measuring the absorbance at 600 nm in 1 cm cuvettes containing a 1 ml reaction volume (ε600=21×10^3 M^−1cm^−1). The reaction components included NADH, 0.5 mM; succinate, 5 mM; KCN, 10 mM; DCIP, 50 μM; PMS, 50 μM. For each assay point, 0.5 mg sample protein was used and α-TOS was added at either 100 or 300 μM as indicated. The change in absorbance of DCIP was measured using a spectrophotometer (UVIKON XL, Secomam) and replicate samples were assayed (n=3). When measuring the complex I (NADH dehydrogenase activity), PMS was omitted. […]
Additional support for the role of α-TOS in inhibiting mitochondrial respiratory complex II activity was sought by isolating subcellular fractions containing mitochondrial preparations from rat liver as well as membranous fractions from P. denitrificans. For these studies, the assay method of SDH/Complex II activity was based on that of King (1967) using phenazine methosulphate (PMS) and the terminal electron acceptor, 2,6-dichloroindophenol (DCIP) as the indicator dye by following the decrease in absorbance at 600 nm as it was reduced by SDH driven under conditions of high succinate. […]

[2] = system: MDA-MB-453, MCF-7 and NeuTL breast cancer cells; assay: ATP bioluminescence assay; format: cell-based, human; murine; conditions: 6 or 24 h; normoxia or hypoxia
Experimental: Cell culture and treatment. […] Cells were cultured in DMEM with 10% FCS, 100 U/ml penicillin and 100 μg/ml streptomycin at 37° C. in a humidified atmosphere of 5% CO2. Mitochondrial complex I-deficient (Breen and Scheffler 1979; DeFrancesco et al 1976; Scheffler et al 2004) and complex II-deficient cells (Albayrak et al 2003; Oostveen et al 1995) were grown in DMEM with 10% FCS, […] glucose and non-essential amino acids.
At approximately 70% confluency, cells were treated with up to 50 μM α-TOS (Sigma), up to 100 μM 3-BP (Aldrich) or 30 ng/ml of human recombinant tumor necrosis factor-related apoptosis—inducing ligand (TRAIL) (Weber et al, 2002) under normoxic or hypoxic conditions. For hypoxia, cells overlaid with nitrogen-purged medium were placed in a hypoxic chamber pre-flushed extensively with nitrogen. The hypoxic chamber with cells was then placed in the incubator as required. α-TOS was dissolved in ethanol and used such that the final ethanol concentration in cell culture medium was <0.1% (v/v). Stock solutions of 3-BP were prepared in PBS prior to use.
ATP measurement. MDA-MB-453 and NeuTL cells were seeded at 2×10^5 per ml and MCF-7 cells at 1.2×10^5 per ml into 96-well tissue culture microtitre plates and allowed to recover overnight before use. Cells were incubated for 6 or 24 h with α-TOS or 3-BP under normoxia or hypoxia as described above. ATP levels were then measured using an ATP bioluminescence assay kit HSII (Roche Applied Science) according to the manufacturer's instructions. Briefly, control or treated cells were transferred into black microtitre plates after incubation for 5 min at room temperature with the cell lysis reagent. Luciferase reagent was added and the signal detected immediately using a Fluorostar Optima plate reader (BMG Labtech). Triplicate wells were read for each condition and data evaluated using a standard calibration curve prepared with known concentrations of ATP.

[3] = biological target: T1, complex II/SDH-dependent activity in NeuTL cells (Mus musculus, UniProt Q8K2B3+Q9CQA3+Q9CXV1+Q9CZB0); assay: MTT reduction assay of complex II/SDH activity in whole cells; format: cell-based, murine
T1 construct: For specifically measuring complex II activity in whole cells; endogenous in cells; host or cells: NeuTL murine breast cancer cells
T1 sequence (Q8K2B3 43-664): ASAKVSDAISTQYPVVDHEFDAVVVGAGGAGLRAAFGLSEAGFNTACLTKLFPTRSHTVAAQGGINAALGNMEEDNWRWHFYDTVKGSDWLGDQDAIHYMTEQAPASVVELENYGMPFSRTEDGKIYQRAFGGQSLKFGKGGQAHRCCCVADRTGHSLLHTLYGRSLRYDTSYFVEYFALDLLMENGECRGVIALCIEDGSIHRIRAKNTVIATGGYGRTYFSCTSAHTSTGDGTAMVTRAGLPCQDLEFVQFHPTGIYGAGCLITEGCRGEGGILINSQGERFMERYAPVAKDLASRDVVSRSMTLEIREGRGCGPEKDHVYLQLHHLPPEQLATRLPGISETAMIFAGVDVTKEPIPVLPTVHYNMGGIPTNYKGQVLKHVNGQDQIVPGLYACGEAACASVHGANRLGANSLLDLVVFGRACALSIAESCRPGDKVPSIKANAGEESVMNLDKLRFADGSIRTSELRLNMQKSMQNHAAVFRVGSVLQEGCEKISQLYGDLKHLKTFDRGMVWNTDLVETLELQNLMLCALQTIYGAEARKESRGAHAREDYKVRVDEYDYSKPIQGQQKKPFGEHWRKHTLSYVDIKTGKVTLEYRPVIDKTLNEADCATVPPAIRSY
T1 sequence (Q9CQA3 31-282): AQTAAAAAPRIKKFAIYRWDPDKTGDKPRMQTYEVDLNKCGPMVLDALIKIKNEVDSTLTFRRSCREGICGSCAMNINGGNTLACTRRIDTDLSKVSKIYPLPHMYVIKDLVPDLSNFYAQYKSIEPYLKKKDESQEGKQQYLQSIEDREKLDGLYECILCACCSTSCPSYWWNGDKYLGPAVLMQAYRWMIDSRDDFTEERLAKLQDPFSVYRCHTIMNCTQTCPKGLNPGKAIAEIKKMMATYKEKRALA
T1 sequence (Q9CZB0 30-169): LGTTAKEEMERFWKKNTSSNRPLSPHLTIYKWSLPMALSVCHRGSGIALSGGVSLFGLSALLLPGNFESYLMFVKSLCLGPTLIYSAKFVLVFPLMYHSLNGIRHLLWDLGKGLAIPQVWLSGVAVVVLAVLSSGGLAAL
T1 sequence (Q9CXV1 57-159): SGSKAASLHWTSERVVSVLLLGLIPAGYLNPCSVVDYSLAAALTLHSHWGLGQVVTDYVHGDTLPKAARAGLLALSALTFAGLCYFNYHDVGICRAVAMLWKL
Experimental: MTT assay. MTT solutions were prepared immediately before use by dissolving 2.5 mg/ml 3-(4,5-dimethyl[…] (MTT) (Sigma) in PBS alone or phenol red-free RPMI medium containing 20 mM succinic acid, pH 7.4. Stock solutions of 3-nitropropionic acid (3NPA) in ethanol, thenoyltrifluoroacetone (TTFA) in DMSO, 3-BP in PBS, α-TOS in DMSO, and MitoQ (Alleva et al, 2003, James et al, 2005) in ethanol were prepared. The drugs were tested on NeuTL cells cultured in exponential growth phase in 96-well microtitre plates using 4-8 replicate wells per dilution assayed. To assess the ability of MitoQ to restore MTT reduction, cells were pre-incubated for 60 min with 2 or 5 μM MitoQ. Final concentrations of ethanol or DMSO in cultures were ≦0.1%. Treated and control cells were allowed to reduce MTT to blue formazan crystals for 2 or 4 h at 37° C. and 5% CO2. After incubation, culture supernatants were removed except for 30 μl, before the formazan crystals were solubilized by addition of 150 μl DMSO, and absorbance values were measured at 570 nm using a Fluorostar Optima plate reader.
To this end, the present inventors investigated whether α-TOS interferes with UbQ binding in complex II. For specifically measuring complex II activity in whole cells, a short-term (1-2 h) assay was used based on the reduction of the tetrazolium salt, MTT (Maehara et al, 1988). […] For this, oxidative respiration of murine NeuTL breast cancer cells was sustained on high levels of succinate (20 mM), thereby promoting the SDH activity of complex II (Maehara et al, 1988). The cells were then assayed within 1-2 h for their ability to enzymatically reduce MTT, which under conditions of high succinate becomes a specific indicator of complex II/SDH-dependent activity (Maehara et al, 1988, Berridge and Tan, 1993).

[4] = system: Jurkat, HBT11, MCF7, MCF7-C3; conditions: Birringer et al, cited from earlier work

SMILES: Cc1c(C)c2c(c(C)c1OC(=O)CCC(=O)O)CC[C@@](C)(CCC[C@H](C)CCC[C@H](C)CCCC(C)C)O2 [Compound 1, α-tocopheryl succinate]
- NADH dehydrogenase (complex I) activity [1]: no effect
- cellular ATP levels [2]: only significantly reduced cellular ATP levels when applied at the higher concentration of 50 μM
- inhibition of MTT reduction after MitoQ pre-incubation ([3]; cells pre-incubated 1 h with MitoQ): significantly overcome by pre-incubation of the cells with MitoQ
- enzymatic reduction of MTT ([3]; within a few hours of treatment): significant decreases occurring in the levels of MTT reduction
- pro-apoptotic activity ([4]; compared with α-TOS and isomers): highest apoptogenic activity
- IC50 ([4]; Jurkat, HBT11, MCF7, MCF7-C3, 2003): 43 µM
